From US9777002B2, “Inhibitors of the renal outer medullary potassium channel” (Merck Sharp & Dohme Corp., priority 2012, dated 2017) come the findings set out here.

One may read the IC50 as the concentration that inhibits the measured activity by half. Lower therefore signals greater potency.

The target in this test is T1, hROMK (hKir1.1) (Homo sapiens, UniProt P48048).
T1 construct: expressed in transfected cells
T1 sequence (P48048 1-391): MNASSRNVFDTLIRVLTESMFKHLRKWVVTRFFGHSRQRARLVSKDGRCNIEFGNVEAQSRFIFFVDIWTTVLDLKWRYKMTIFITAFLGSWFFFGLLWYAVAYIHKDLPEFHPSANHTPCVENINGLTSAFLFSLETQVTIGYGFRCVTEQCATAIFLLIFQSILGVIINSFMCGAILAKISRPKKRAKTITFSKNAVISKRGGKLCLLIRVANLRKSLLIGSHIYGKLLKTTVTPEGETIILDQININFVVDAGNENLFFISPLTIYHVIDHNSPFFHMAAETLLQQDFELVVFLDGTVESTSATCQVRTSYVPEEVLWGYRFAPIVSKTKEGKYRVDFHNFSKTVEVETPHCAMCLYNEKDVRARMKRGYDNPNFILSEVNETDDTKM
The experiment in a line: Thallium Flux Assay. It counts as cell-based. As to conditions: HEK293 cells stably expressing hROMK (hKir1.1). Here is the method:
Cell Culture Conditions—HEK293 cells stably expressing hROMK (hKir1.1) were grown at 37° C. in a 10% CO2 humidified incubator in complete growth media: Dulbecco's Modified Eagle Medium supplemented with non-essential amino acids, Penicillin/Streptomycin/Glutamine, G418 and FBS. At >80% confluency, aspirate the media from the flask and rinse with 10 mL Calcium/Magnesium-free PBS. Add 5 mL of 1× trypsin (prepared in Ca/Mg Free PBS) to T-225 flask and return flask to 37° C./CO2 incubator for 2-3 minutes. To dislodge the cell, gently bang the side of the flask with your hand. Triturate the cells completely and then transfer the cells to 25 mL complete media. Centrifuge at 1,500 rpm for 6 min followed by resuspension in complete growth media and determine cell concentration. For typical re-seeding, 4E6 cells/T-225 flask will attain >80% confluency in 4 days. Under ideal growth conditions and appropriate tissue culture practices, this cell line is stable for 40-45 passages.
FluxOR Kit Components (Invitrogen F10017)
• FluxOR™ Reagent (Component A) • FluxOR™ Assay Buffer (Component B)—10× Concentrate • PowerLoad™ Concentrate (Component C)—100× Concentrate • Probenecid (Component D)—Lyophilized sample is kept at −20° C. Water soluble, 100× after solubilization in 1 mL water. Store at 4° C. • FluxOR™ Chloride-free Buffer (Component E)—5× Concentrate • Potassium sulfate (K2SO4) Concentrate (Component F)—125 mM in water. Store at 4° C. • Thallium sulfate (Tl2SO4) Concentrate (Component G)—50 mM in water. Store at 4° C. • DMSO (dimethyl sulfoxide, Component H)—1 mL (100%) Reagent Preparation: FluxOR Working Solutions • 1000× FluxOR™ Reagent: Reconstitute a vial of component A in 100 μl DMSO; Mix well; Store 10 μl aliquots at −20° C. • 1× FluxOR™ Assay Buffer: Dilute Component B 10-fold with water; Adjust pH to 7.4 with Hepes/NaOH; Filter and store at 4° C. • Probenecid/Assay Buffer: 100 mL of 1× FluxOR™ Assay Buffer; 1 mL of reconstituted component D; Store at 4° C. • Loading Buffer (per microplate): 10 μl 1000× FluxOR™ Reagent; 100 μl component C; 10 mL Probenecid/Assay Buffer • Compound Buffer (per microplate): 20 mL Probenecid/Assay Buffer; 0.3 mM ouabain (10 mM ouabain in water can be stored in amber bottle/aluminum foil at room temperature); Test compound • 1× FluxOR™ Chloride-Free Buffer: Prepare 1× working solution in water. Can be stored at room temperature • Stimulant Buffer (prepared at 5× final concentration in 1× FluxOR™Chloride-Free Buffer): 7.5 mM Thallium sulfate and 0.75 mM Potassium sulfate (to give a final assay concentration of 3 mM Thallium/0.3 mM Potassium). Store at 4° C. when not in use. If kept sterile, this solution is good for months.
Assay Protocol—The ROMK channel functional thallium flux assay is performed in 384 wells, using the FLIPR-Tetra instrument. HEK-hKir1.1 cells are seeded in Poly-D-Lysine microplates and kept in a 37° C.-10% CO2 incubator overnight. On the day of the experiment, the growth media is replaced with the FluxOR™ reagent loading buffer and incubated, protected from light, at ambient temperature (23-25° C.) for 90 min. The loading buffer is replaced with assay buffer± test compound followed by 30 min incubation at ambient temperature, where the Thallium/Potassium stimulant is added to the microplate.
• 1. Seed HEK-hKir1.1 cells (50 μl at 20,000 cells/well) in 384-well PDL coated Microplates • 2. Allow cells to adhere overnight in humidified 37° C./10% CO2 incubator • 3. Completely remove cell growth media from microplate and replace with 25 μl loading buffer • 4. Incubate Microplate at room temperature, protected form light, for 90 min • 5. Remove loading buffer and replace with 25 μl 1× Assay Buffer±test compound. • 6. Incubate microplate at room temperature, protected from light, for 30 min • 7. At FLIPR-Tetra 384: Add stimulant (Thallium/Potassium) solution to microplate and monitor fluorescence. Excitation=400 nm, Emission=460 & 580 nm. Collect data for ˜10 min. […]

In turn, `Cc1c([C@@H](O)CN2CC[C@H](NC(=O)c3ccc(C#N)cn3)[C@H](F)C2)ccc2c1COC2=O` (single isomer, unassigned) [43 B] had an IC50 of 180 nM.
With `Cc1nc(C(=O)N[C@H]2CCN(C[C@H](O)c3ccc4c(c3C)COC4=O)C[C@H]2F)ccc1C#N` (single isomer, unassigned) [44 A], the IC50 is 570 nM.
As to `Cc1nc(C(=O)N[C@H]2CCN(C[C@H](O)c3ccc4c(c3C)COC4=O)C[C@H]2F)ccc1C#N` (single isomer, unassigned) [44 B], the IC50 turned out to be 260 nM.
For `Cc1c([C@@H](O)CN2CCC(NC(=O)c3ccc(C#N)nc3)C(F)C2)ccc2c1COC2=O` (single isomer, unassigned) [46 A], half-maximal inhibition (IC50) required 520 nM.
`Cc1c([C@@H](O)CN2CCC(NC(=O)c3ccc(C#N)nc3)C(F)C2)ccc2c1COC2=O` (single isomer, unassigned) [46 B]: inhibition was half-maximal at 650 nM (IC50).
Compound `Cc1cc(C(=O)N[C@H]2CCN(C[C@H](O)c3ccc4c(c3C)COC4=O)C[C@H]2F)ccc1C#N` (single isomer, unassigned) [47 A] registered an IC50 of 160 nM.
As for `Cc1cc(C(=O)N[C@H]2CCN(C[C@H](O)c3ccc4c(c3C)COC4=O)C[C@H]2F)ccc1C#N` (single isomer, unassigned) [47 B], the figure is 180 nM; as for `Cc1cc(C(=O)NC2CCN(C[C@H](O)c3ccc4c(c3C)COC4=O)CC2F)ncc1C#N` (single isomer, unassigned) [48 A], 80 nM; as for `Cc1cc(C(=O)NC2CCN(C[C@H](O)c3ccc4c(c3C)COC4=O)CC2F)ncc1C#N` (single isomer, unassigned) [48 B], 100 nM.
In the case of `Cc1c([C@@H](O)CN2CC[C@H](NC(=O)c3ccc(-n4cnnn4)nc3)[C@H](F)C2)ccc2c1COC2=O` (single isomer, unassigned) [50 A] it was 100 nM.
`Cc1c([C@@H](O)CN2CC[C@H](NC(=O)c3ccc(-n4cnnn4)nc3)[C@H](F)C2)ccc2c1COC2=O` (single isomer, unassigned) [50 B] displayed an IC50 of 930 nM.
On to `CO[C@@H]1CN(C[C@H](O)c2ccc3c(c2C)COC3=O)CC[C@@H]1NC(=O)c1ccc(-n2cnnn2)nc1` (single isomer, unassigned) [54 A], for which the IC50 turned out to be 760 nM.
Consider `CO[C@@H]1CN(C[C@H](O)c2ccc3c(c2C)COC3=O)CC[C@@H]1NC(=O)c1ccc(-n2cnnn2)nc1` (single isomer, unassigned) [54 B], for which half-maximal inhibition (IC50) required 340 nM.
Consider `Cc1c([C@@H](O)CN2CC[C@H](NC(=O)c3ccc(-n4cnnn4)cn3)[C@H](F)C2)ccc2c1COC2=O` (single isomer, unassigned) [58 A], for which the IC50 was found to be 540 nM.
In the case of `Cc1c([C@@H](O)CN2CC[C@H](NC(=O)c3ccc(-n4cnnn4)cn3)[C@H](F)C2)ccc2c1COC2=O` (single isomer, unassigned) [58 B] it was 870 nM; in that of `Cc1c([C@@H](O)CN2CCC(C)(CNC(=O)c3ccc(-n4cnnn4)cn3)C2)ccc2c1COC2=O` (single isomer, unassigned) [69 A], 880 nM.
Take `Cc1c([C@@H](O)CN2CCC(C)(CNC(=O)c3ccc(-n4cnnn4)cn3)C2)ccc2c1COC2=O` (single isomer, unassigned) [69 B]: the IC50 came out at 490 nM.
As for `Cc1c([C@@H](O)CN2CCC(CNC(=O)c3ccc(-n4cnnn4)nc3)(c3ccccc3)C2)ccc2c1COC2=O` (single isomer, unassigned) [81 A], the IC50 stood at 620 nM.
In turn, `Cc1c([C@@H](O)CN2CCC(CNC(=O)c3ccc(-n4cnnn4)nc3)(c3ccccc3)C2)ccc2c1COC2=O` (single isomer, unassigned) [81 B] yielded an IC50 of 160 nM.
`Cc1c([C@@H](O)CN2CCC(C3(NC(=O)c4ccc(-n5cnnn5)nc4)CCC3)C2)ccc2c1COC2=O` (single isomer, unassigned) [90 A] had an IC50 of 740 nM.
Turning to `Cc1c([C@@H](O)CN2CCC(C3(NC(=O)c4ccc(-n5cnnn5)nc4)CCC3)C2)ccc2c1COC2=O` (single isomer, unassigned) [90 B], the IC50 amounted to 280 nM.
As to `Cc1c(CCN2CCC(N(C)C(=O)c3ccc4c(c3)COC4=O)CC2)ccc2c1COC2=O` [Example 2, N-Methyl-N-(1-(2-(4-methyl-1-oxo-1,3-dihydroisobenzofuran-5-yl)ethyl)piperidin-4-yl)-1-oxo-1,3-dihydroisobenzofuran-5-carboxamide], 600 nM corresponded to half-maximal inhibition (IC50).
Consider `Cc1c(CCN2CCC(NC(=O)c3ccc(-n4cnnn4)nc3)CC2)ccc2c1COC2=O` [Example 3, N-(1-(2-(4-Methyl-1-oxo-1,3-dihydroisobenzofuran-5-yl)ethyl)piperidin-4-yl)-6-(1H-tetrazol-1-yl)nicotinamide], for which half-maximal inhibition (IC50) required 500 nM.
In the case of `C[C@H]1Cc2cc(CCN3CCC(NC(=O)c4ccc5c(c4)COC5=O)CC3)ccc2C(=O)O1` [Example 4, (S)-N-(1-(2-(3-methyl-1-oxoisochroman-6-yl)ethyl)piperidin-4-yl)-1-oxo-1,3-dihydroisobenzofuran-5-carboxamide] it was 320 nM; in that of `COc1cc(C(=O)NC2CCN(CCc3ccc4c(c3C)COC4=O)CC2)ccc1C#N` [Example 5, 4-Cyano-3-methoxy-N-(1-(2-(4-methyl-1-oxo-1,3-dihydroisobenzofuran-5-yl)ethyl)piperidin-4-yl)benzamide], 20 nM.
As for `Cc1c(C(O)CN2CCC(NC(=O)c3ccc4c(c3)COC4=O)CC2)ccc2c1COC2=O` (centres unmarked) [Example 6, N-(1-(2-Hydroxy-2-(4-methyl-1-oxo-1,3-dihydroisobenzofuran-5-yl)ethyl)piperidin-4-yl)-1-oxo-1,3-dihydroisobenzofuran-5-carboxamide], the figure is 40 nM.
As for `COc1cc(C(=O)NC2CCN(CC(O)c3ccc4c(c3C)COC4=O)CC2)ccc1C#N` (centres unmarked) [Example 7, 4-Cyano-N-(1-(2-hydroxy-2-(4-methyl-1-oxo-1,3-dihydroisobenzofuran-5-yl)ethyl)piperidin-4-yl)-3-methoxybenzamide], half-maximal inhibition (IC50) was put at 10 nM.
The compound `Cc1c(CCN2CCC(NC(=O)c3ccc4nonc4c3)CC2)ccc2c1COC2=O` [Example 8, N-(1-(2-(4-Methyl-1-oxo-1,3-dihydroisobenzofuran-5-yl)ethyl)piperidin-4-yl)benzo[c][1,2,5]oxadiazole-5-carboxamide] registered an IC50 of 460 nM.
Regarding `COc1ccc(C(=O)NC2CCN(CCc3ccc4c(c3C)COC4=O)CC2)cc1C#N` [Example 9, 3-Cyano-4-methoxy-N-(1-(2-(4-methyl-1-oxo-1,3-dihydroisobenzofuran-5-yl)ethyl)piperidin-4-yl)benzamide], half-maximal inhibition (IC50) was put at 30 nM.
